Reference: ChEMBL document CHEMBL5465560, “Selectivity Literature for EUbOPEN Chemogenomic Library” (2024)

What was measured:
[1] = target: T1, Serine/threonine-protein kinase Sgk1 (Homo sapiens) (UniProt O00141); experiment: Selectivity interaction (Kinase screening (Nanosyn)) EUB0000604a SGK1
T1 sequence (whole entry): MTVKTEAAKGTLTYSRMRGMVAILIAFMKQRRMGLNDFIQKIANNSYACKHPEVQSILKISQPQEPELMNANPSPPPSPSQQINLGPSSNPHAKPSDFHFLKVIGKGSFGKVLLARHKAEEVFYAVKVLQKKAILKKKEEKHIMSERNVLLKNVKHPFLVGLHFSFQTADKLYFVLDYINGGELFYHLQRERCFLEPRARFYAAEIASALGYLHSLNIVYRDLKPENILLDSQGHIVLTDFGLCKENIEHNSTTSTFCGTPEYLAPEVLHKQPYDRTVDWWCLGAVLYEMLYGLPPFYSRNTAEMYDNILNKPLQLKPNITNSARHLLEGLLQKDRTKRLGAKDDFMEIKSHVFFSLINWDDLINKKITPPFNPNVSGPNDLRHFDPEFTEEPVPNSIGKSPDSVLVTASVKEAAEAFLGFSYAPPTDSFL

[2] = target: Cyclin-dependent kinase 17 (Homo sapiens) (UniProt Q00537); experiment: Selectivity interaction (ActivX KiNativ screen (kinase selectivity in THP-1 cell lysates)) EUB0000639a CDK17; assay type: subcellular; conditions: lysate, at 1 µM
Cyclin-dependent kinase 17 (Homo sapiens), sequence (Q00537 whole entry, looked up): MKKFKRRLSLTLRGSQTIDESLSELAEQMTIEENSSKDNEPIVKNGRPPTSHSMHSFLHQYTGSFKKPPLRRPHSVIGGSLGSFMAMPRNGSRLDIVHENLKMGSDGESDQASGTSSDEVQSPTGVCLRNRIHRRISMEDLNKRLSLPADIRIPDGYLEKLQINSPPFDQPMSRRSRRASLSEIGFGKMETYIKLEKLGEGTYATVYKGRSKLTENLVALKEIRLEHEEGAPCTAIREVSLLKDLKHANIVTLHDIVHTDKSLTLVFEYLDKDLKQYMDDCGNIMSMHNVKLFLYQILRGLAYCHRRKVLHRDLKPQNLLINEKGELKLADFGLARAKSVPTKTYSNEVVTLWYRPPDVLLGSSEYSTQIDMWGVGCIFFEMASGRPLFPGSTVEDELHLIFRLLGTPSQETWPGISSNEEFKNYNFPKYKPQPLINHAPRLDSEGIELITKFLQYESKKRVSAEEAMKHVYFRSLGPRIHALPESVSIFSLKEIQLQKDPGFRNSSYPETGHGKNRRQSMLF

[3] = target: Alpha-1A adrenergic receptor (Homo sapiens, UniProt P35348); experiment: Selectivity interaction (Alpha1A calcium flux assay ) EUB0000877a ADRA1A
Alpha-1A adrenergic receptor, sequence (P35348 whole entry): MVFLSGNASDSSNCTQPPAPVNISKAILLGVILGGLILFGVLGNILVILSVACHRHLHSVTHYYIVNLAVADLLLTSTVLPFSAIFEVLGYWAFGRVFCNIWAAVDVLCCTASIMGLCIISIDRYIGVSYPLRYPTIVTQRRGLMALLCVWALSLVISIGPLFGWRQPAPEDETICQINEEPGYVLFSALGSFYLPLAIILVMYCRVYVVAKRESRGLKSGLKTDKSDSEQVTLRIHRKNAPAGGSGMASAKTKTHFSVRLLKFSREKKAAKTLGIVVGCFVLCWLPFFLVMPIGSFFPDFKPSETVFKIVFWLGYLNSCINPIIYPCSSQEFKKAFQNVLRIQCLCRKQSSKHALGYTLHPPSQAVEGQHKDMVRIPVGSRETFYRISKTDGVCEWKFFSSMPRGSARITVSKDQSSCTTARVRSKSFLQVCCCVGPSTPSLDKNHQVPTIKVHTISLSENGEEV

Focal adhesion kinase 1 = Focal adhesion kinase 1 (Homo sapiens, UniProt Q05397)
Focal adhesion kinase 1, sequence (Q05397 whole entry): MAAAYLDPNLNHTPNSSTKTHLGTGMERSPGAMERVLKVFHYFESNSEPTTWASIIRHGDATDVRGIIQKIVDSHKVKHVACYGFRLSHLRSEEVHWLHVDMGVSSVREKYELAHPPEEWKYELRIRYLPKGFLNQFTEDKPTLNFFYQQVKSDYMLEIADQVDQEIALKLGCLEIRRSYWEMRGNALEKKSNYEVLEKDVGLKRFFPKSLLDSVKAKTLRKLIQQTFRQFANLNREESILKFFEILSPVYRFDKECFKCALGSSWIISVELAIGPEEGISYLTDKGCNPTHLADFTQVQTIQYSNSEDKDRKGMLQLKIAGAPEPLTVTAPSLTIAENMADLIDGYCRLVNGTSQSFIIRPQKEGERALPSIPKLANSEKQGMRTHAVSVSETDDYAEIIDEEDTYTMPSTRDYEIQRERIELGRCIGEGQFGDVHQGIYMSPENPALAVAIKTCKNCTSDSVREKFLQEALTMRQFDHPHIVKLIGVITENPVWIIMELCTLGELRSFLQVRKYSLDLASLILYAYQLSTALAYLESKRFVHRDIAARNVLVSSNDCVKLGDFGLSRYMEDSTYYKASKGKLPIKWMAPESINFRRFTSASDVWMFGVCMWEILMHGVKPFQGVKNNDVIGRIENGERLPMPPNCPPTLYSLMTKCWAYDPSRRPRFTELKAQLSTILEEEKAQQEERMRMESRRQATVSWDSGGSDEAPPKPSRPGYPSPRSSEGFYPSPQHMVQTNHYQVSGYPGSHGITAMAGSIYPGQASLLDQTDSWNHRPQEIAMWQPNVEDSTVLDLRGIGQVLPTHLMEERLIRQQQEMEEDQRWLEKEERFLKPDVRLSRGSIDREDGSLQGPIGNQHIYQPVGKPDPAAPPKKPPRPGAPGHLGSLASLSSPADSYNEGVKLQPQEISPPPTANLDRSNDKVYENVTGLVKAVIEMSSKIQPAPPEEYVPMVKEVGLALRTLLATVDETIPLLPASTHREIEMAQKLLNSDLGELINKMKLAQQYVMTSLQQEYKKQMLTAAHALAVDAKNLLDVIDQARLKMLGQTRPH

[4] = target: Tyrosine-protein kinase Blk (Homo sapiens) (UniProt P51451); conditions: at 10 µM
Tyrosine-protein kinase Blk (Homo sapiens), sequence (P51451 2-505 limits assumed): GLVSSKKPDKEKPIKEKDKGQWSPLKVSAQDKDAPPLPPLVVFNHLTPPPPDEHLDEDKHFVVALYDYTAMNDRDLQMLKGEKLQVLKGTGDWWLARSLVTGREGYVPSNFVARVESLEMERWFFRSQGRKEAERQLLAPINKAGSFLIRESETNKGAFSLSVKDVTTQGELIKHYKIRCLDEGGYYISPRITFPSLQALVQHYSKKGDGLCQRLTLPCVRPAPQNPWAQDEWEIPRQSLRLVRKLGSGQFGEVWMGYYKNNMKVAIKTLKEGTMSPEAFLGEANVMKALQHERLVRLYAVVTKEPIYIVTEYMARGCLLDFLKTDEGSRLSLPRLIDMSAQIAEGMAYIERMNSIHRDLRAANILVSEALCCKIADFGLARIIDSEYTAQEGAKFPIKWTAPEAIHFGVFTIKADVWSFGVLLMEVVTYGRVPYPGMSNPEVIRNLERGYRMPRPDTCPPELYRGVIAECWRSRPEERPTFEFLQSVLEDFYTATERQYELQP

[5] = target: T2, Serine/threonine-protein kinase LATS1 (Homo sapiens) (UniProt O95835); experiment: Selectivity interaction (KinomeScan (DiscoverX)) EUB0000045b LATS1
T2 sequence (whole entry): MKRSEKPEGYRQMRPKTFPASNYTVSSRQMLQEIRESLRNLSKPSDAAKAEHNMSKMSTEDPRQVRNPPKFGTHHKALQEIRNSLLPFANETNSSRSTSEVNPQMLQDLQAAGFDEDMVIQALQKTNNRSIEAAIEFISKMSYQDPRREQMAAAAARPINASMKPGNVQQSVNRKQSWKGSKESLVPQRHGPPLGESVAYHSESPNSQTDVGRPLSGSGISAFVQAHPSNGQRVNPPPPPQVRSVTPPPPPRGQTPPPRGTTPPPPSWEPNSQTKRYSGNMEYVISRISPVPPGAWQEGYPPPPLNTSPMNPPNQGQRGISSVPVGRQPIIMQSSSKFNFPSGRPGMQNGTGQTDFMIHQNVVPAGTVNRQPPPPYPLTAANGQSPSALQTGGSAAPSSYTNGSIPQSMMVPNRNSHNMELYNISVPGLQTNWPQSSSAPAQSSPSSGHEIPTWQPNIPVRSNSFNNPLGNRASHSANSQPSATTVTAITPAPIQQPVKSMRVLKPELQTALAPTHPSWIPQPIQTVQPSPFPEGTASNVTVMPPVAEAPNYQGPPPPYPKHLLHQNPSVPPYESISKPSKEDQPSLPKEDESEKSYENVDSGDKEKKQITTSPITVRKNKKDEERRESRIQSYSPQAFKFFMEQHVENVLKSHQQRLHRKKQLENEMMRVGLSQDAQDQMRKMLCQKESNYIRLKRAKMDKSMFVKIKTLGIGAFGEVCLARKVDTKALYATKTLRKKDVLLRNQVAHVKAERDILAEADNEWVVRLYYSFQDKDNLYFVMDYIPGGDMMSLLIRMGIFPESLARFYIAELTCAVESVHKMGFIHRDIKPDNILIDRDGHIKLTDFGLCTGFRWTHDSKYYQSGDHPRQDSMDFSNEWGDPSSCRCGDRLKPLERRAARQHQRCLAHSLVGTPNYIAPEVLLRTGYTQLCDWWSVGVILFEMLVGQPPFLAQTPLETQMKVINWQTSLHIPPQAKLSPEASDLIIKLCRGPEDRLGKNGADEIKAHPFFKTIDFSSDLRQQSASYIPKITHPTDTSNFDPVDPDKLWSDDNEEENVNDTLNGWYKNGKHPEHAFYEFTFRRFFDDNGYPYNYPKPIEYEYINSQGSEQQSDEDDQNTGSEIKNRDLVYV

[6] = target: Serine/threonine-protein kinase 10 (Homo sapiens) (UniProt O94804); experiment: Selectivity interaction (ActivX KiNativ screen (ex vivo kinase selectivity in human PBMCs)) EUB0001619a STK10; assay type: cell-based; conditions: PBMC, at 1 µM
Serine/threonine-protein kinase 10 (Homo sapiens), sequence (O94804 whole entry, looked up): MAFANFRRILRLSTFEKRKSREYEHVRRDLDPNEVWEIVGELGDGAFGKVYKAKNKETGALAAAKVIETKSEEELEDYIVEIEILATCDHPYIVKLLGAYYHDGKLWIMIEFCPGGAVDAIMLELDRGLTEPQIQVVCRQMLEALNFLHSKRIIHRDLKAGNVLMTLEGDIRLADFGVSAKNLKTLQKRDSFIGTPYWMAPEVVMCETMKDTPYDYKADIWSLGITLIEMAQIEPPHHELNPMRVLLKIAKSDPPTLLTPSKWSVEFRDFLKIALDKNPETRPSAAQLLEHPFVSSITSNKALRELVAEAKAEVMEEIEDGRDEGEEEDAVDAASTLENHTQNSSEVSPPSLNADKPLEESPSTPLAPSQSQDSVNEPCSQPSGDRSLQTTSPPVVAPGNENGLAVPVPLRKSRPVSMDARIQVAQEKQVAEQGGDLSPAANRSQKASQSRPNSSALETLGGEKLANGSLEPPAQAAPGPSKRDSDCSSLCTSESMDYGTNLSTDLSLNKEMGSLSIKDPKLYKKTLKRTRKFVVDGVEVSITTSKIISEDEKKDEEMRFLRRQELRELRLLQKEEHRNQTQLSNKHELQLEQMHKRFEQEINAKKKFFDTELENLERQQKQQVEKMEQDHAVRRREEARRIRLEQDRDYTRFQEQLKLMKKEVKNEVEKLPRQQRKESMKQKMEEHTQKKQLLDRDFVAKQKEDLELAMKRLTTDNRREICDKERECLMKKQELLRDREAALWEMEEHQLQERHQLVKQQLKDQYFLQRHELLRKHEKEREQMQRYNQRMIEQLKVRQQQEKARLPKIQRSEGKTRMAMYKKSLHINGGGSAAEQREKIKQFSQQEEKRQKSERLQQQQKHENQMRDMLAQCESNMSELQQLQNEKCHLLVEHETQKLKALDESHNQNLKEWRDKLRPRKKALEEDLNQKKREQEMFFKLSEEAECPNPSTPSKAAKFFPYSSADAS

[7] = target: Leucine-rich repeat serine/threonine-protein kinase 2 (Homo sapiens, UniProt Q5S007); conditions: at 1 µM
[8] = target: Ribosomal protein S6 kinase alpha-1 (Homo sapiens, UniProt Q15418); experiment: Selectivity interaction (KinomeScan (DiscoverX)) EUB0000666a RPS6KA1; conditions: at 10 µM
Ribosomal protein S6 kinase alpha-1, sequence (Q15418 whole entry): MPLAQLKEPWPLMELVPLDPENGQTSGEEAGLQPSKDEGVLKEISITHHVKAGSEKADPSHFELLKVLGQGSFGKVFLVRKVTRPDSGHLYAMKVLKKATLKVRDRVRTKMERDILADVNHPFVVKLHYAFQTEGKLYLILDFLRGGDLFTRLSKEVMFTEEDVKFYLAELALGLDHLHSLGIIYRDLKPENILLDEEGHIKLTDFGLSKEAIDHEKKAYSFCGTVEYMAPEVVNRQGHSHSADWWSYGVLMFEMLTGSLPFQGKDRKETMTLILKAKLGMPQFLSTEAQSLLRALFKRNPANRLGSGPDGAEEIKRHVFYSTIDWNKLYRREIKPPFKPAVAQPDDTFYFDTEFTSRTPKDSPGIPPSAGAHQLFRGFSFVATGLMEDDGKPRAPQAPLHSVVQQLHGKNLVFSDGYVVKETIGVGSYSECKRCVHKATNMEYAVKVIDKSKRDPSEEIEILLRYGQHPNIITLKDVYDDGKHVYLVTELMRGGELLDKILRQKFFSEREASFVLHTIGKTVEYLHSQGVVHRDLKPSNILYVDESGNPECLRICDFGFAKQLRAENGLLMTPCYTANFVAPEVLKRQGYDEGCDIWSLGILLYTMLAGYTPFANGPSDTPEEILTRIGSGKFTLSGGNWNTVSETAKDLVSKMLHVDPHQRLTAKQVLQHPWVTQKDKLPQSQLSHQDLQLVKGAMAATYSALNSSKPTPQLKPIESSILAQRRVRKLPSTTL

For Cc1cnc(Nc2ccc(F)cc2Cl)nc1-c1c[nH]c(C(=O)N[C@H](CO)c2cccc(Cl)c2)c1, the % of inhibition [1] was 15%.
CC[C@@H]1[C@H](F)C(=O)N[C@@H]1COc1nccc2cc(C(N)=O)c(OC)cc12 [ZIMLOVISERTIB] gave a % of inhibition [2] of 3.9%.
Work on CCC(=O)N1CC[C@H](Nc2ncnc3c2CN(c2cnc(OC)c(C(F)(F)F)c2)CC3)C1 [LENIOLISIB] yielded an IC50 [3] greater than 30 µM.
For CCc1cccc(CC)c1NC(=O)c1nn(C)c2c1CCc1cnc(Nc3ccc(C(=O)NC4CCN(C)CC4)cc3OC(F)(F)F)nc1-2, the IC50 (Focal adhesion kinase 1) was greater than 10 µM.
CCN(CC)CCCCNc1ncc2cc(-c3cc(OC)cc(OC)c3)c(NC(=O)NC(C)(C)C)nc2n1 was tested, and the % of control [4] was 100%.
C=CC(=O)Nc1cc(-n2c(=O)ccc3cnc4ccc(-c5ccc(NS(C)(=O)=O)cc5)cc4c32)ccc1C gave a % of control ([5]; at 1 µM) of 100% and a % of control ([5]; at 10 µM) of 100%.
N#Cc1cccc(-c2c[nH]c3ncnc(N4CCOCC4)c23)c1 showed a % of inhibition [6] of 79% and a % of control [7] of 43%.
For O=C(NOC[C@H](O)CO)c1ccc(F)c(F)c1Nc1ccc(I)cc1F, the % of control [8] was 100%.
